Data as given in ChEMBL document CHEMBL4311939, “Design and evaluation of novel tetracyclic benzofurans as palm site allosteric inhibitors of HCV NS5B polymerase” (Bioorg Med Chem Lett, 2019).
Converted amounts (≈) assume the structure as drawn.

How the values were obtained:
[1] = Oral bioavailability in monkey at 3 mg/kg; format: ADME, organism-based, Macaca mulatta; conditions: rhesus monkey, in vivo
[2] = target: Sodium channel protein type 5 subunit alpha (Homo sapiens, UniProt Q14524); experiment: Inhibition of Nav1.5 (unknown origin)
Chain of Sodium channel protein type 5 subunit alpha (Q14524 whole entry): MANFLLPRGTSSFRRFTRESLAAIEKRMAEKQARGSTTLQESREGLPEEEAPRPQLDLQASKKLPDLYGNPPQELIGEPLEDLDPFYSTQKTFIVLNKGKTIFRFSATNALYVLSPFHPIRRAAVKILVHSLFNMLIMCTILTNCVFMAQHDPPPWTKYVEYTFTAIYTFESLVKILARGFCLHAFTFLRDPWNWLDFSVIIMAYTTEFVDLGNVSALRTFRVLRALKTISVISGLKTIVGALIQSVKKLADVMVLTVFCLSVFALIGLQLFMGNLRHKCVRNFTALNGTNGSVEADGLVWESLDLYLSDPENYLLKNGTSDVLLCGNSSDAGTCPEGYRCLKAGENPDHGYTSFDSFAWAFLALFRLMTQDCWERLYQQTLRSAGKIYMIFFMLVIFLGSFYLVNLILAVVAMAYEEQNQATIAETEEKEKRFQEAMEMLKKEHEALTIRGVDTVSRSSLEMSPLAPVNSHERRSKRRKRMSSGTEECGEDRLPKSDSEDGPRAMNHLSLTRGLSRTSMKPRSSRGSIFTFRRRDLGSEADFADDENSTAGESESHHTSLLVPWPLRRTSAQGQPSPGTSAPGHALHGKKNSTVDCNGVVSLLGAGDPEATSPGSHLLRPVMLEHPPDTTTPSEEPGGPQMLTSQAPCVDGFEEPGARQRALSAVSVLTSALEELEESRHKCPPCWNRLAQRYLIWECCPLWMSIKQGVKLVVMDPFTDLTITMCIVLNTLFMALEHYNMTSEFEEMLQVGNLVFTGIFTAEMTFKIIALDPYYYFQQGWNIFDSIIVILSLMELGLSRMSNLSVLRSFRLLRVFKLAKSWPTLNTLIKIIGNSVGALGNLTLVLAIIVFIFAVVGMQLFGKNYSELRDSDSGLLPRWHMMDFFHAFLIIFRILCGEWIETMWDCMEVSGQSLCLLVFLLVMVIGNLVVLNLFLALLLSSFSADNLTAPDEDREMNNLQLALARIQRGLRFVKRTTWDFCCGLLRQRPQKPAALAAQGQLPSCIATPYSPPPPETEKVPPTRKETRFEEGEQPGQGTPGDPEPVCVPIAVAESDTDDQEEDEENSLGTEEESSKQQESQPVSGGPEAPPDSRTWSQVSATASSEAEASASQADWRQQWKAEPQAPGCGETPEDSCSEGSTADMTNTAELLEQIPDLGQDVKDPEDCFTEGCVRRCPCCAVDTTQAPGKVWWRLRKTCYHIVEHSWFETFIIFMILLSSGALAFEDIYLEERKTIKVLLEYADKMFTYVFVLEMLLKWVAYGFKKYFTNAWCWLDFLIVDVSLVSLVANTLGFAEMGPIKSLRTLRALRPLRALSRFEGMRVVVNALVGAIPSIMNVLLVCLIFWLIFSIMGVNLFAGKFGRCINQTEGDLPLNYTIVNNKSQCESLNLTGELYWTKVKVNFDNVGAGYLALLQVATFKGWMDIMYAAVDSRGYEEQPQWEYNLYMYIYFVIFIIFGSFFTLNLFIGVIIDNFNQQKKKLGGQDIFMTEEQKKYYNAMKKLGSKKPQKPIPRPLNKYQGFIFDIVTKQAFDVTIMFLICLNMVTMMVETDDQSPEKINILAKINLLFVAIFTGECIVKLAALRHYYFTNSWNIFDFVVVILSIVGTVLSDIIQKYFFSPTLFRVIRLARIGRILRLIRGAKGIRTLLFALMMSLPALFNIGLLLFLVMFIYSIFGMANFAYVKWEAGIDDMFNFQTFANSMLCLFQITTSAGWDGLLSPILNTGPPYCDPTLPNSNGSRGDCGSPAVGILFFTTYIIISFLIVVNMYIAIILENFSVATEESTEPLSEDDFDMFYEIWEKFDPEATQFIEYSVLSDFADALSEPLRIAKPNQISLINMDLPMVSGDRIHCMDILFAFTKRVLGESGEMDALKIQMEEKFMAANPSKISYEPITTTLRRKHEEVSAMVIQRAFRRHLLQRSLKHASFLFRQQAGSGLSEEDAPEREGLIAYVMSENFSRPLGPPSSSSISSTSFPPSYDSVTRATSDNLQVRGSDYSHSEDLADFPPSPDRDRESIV

[3] = Half life in dog at 0.5 mg/kg, iv; format: ADME, organism-based, Canis lupus familiaris; conditions: in vivo
[4] = AUC in monkey at 3 mg/kg, po; format: ADME, organism-based, Macaca mulatta; conditions: rhesus monkey, in vivo
[5] = target: Voltage-gated inwardly rectifying potassium channel KCNH2 (Homo sapiens, UniProt Q12809); experiment: Inhibition of human ERG by patch clamp assay
Chain of Voltage-gated inwardly rectifying potassium channel KCNH2 (Q12809 whole entry): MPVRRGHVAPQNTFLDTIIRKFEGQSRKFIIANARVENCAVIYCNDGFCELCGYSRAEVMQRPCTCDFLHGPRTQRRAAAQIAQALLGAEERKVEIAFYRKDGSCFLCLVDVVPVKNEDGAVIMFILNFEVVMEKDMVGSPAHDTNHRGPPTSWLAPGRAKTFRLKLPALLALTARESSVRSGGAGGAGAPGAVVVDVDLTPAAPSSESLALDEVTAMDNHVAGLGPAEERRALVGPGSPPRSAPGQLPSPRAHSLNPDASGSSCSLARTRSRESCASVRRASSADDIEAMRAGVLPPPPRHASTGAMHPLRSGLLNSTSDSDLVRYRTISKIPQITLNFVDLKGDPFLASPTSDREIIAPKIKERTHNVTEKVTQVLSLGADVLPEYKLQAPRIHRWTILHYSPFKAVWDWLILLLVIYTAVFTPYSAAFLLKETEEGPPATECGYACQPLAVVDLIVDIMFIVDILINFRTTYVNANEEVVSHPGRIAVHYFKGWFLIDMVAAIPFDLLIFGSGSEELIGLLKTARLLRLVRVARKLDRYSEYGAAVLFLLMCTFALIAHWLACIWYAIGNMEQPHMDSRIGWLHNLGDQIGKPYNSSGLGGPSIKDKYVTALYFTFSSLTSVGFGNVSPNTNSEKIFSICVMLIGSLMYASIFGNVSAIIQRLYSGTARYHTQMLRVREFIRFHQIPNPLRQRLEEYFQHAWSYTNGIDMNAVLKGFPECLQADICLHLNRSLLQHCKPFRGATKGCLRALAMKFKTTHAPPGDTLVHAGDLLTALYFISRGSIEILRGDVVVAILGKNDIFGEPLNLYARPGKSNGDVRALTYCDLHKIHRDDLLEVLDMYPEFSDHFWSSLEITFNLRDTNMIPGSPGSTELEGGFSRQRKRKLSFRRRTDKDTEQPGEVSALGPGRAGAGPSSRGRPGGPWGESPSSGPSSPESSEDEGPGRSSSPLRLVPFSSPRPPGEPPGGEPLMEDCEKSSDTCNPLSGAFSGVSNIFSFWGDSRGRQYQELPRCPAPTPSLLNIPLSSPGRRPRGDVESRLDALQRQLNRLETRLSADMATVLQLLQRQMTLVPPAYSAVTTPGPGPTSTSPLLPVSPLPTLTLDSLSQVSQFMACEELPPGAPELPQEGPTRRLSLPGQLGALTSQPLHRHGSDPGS

[6] = Cmax in dog at 2 mg/kg, po; format: ADME, organism-based, Canis lupus familiaris; design: dose 2 mg/kg, route oral; conditions: in vivo
[7] = Oral bioavailability in dog at 2 mg/kg; format: ADME, organism-based, Canis lupus familiaris; conditions: in vivo
[8] = Cmax in monkey at 3 mg/kg, po; format: ADME, organism-based, Macaca mulatta; design: dose 3 mg/kg, route oral; conditions: rhesus monkey, in vivo
[9] = AUC in dog at 2 mg/kg, po; format: ADME, organism-based, Canis lupus familiaris; conditions: in vivo
[10] = Drug metabolism in solvent assessed as oxidation by measuring cpd 1 formation under air exposure
[11] = Drug concentration in rat plasma at 5 mg/kg, po after 24 hrs; format: ADME, organism-based
[12] = Clearance in dog at 0.5 mg/kg, iv; format: ADME, organism-based, Canis lupus familiaris; conditions: in vivo
[13] = Drug concentration in dog plasma at 2 mg/kg, po after 24 hrs; format: ADME, organism-based, Canis lupus familiaris
[14] = target: T1, Nuclear receptor subfamily 1 group I member 2 (Homo sapiens, UniProt O75469); experiment: Transactivation of PXR (unknown origin); format: ADME
T1 sequence (O75469 whole entry): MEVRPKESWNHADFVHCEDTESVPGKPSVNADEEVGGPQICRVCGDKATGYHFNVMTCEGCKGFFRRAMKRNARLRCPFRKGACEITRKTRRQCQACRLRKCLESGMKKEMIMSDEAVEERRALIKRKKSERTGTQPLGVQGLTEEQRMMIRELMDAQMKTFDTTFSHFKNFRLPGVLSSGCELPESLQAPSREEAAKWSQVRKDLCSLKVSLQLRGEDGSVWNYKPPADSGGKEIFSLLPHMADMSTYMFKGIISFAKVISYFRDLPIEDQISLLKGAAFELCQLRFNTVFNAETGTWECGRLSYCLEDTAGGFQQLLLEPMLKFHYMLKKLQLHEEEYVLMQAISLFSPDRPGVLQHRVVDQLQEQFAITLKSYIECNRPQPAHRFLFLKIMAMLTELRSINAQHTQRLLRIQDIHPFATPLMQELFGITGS

Cytochrome P450 3A4 = Cytochrome P450 3A4 (Homo sapiens, UniProt P08684); experiment: Inhibition of CYP3A4 (unknown origin); format: ADME
Chain of Cytochrome P450 3A4 (P08684 whole entry): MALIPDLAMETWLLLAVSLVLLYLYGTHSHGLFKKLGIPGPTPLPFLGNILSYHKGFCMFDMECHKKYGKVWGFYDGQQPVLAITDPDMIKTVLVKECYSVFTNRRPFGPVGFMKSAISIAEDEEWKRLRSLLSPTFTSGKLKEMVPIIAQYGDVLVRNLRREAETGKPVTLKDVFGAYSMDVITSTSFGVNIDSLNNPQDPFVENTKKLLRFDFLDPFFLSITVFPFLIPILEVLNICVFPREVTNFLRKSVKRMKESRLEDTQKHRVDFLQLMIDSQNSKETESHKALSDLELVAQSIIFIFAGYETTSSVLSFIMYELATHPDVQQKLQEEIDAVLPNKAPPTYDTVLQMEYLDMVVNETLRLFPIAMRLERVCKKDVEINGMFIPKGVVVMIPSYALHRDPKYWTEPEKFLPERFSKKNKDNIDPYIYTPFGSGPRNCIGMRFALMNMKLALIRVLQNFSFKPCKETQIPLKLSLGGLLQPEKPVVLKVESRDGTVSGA

[15] = Drug concentration in monkey plasma at 3 mg/kg, po after 24 hrs; format: ADME, organism-based, Macaca mulatta; conditions: rhesus monkey
[16] = Apparent permeability in dog MDCK cells; format: ADME, cell-based, Canis lupus familiaris
[17] = Half life in monkey at 1 mg/kg, iv; format: ADME, organism-based, Macaca mulatta; conditions: rhesus monkey, in vivo
[18] = AUC in rat at 5 mg/kg, po; format: ADME, organism-based; conditions: in vivo
[19] = Clearance in rat at 1 mg/kg, iv; format: ADME, organism-based; conditions: in vivo
[20] = Half life in rat at 1 mg/kg, iv; format: ADME, organism-based; conditions: in vivo
[21] = target: Voltage-dependent L-type calcium channel subunit alpha-1C (Homo sapiens, UniProt Q13936); experiment: Inhibition of Cav1.2 (unknown origin)
[22] = Oral bioavailability in rat at 5 mg/kg; format: ADME, organism-based; conditions: in vivo
[23] = Cmax in rat at 5 mg/kg, po; format: ADME, organism-based; design: dose 5 mg/kg, route oral; conditions: in vivo
[24] = Clearance in monkey at 1 mg/kg, iv; format: ADME, organism-based, Macaca mulatta; conditions: rhesus monkey, in vivo
[25] = Solubility of the compound in FaSSIF using crystalline sample; format: physicochemical
[26] = AUC in rat at 100 mg/kg, po using conventional sample; format: ADME, organism-based; conditions: in vivo
[27] = AUC in rat at 300 mg/kg, po using spray dry sample; format: ADME, organism-based; conditions: in vivo
[28] = Cmax in rat at 10 mg/kg, po using spray dry sample; format: ADME, organism-based; design: dose 10 mg/kg, route oral; conditions: in vivo
[29] = AUC in rat at 100 mg/kg, po using spray dry sample; format: ADME, organism-based; conditions: in vivo
[30] = AUC in rat at 10 mg/kg, po using spray dry sample; format: ADME, organism-based; conditions: in vivo
[31] = Cmax in rat at 100 mg/kg, po using spray dry sample; format: ADME, organism-based; design: dose 100 mg/kg, route oral; conditions: in vivo
[32] = Cmax in rat at 300 mg/kg, po using spray dry sample; format: ADME, organism-based; design: dose 300 mg/kg, route oral; conditions: in vivo
[33] = Cmax in rat at 650 mg/kg, po using spray dry sample; format: ADME, organism-based; design: dose 650 mg/kg, route oral; conditions: in vivo
[34] = AUC in rat at 650 mg/kg, po using spray dry sample; format: ADME, organism-based; conditions: in vivo
[35] = Tmax in rat at 5 mg/kg, po; format: ADME, organism-based; conditions: in vivo

bioavailability [1] [%] | half-life [3] [h] | AUC [4] [µM·h] | Cmax [6] [nM] | bioavailability [7] [%] | Cmax [8] [nM] | AUC [9] [µM·h] | concentration at 24 h [11] [nM] | clearance [12] [mL/min/kg] | concentration at 24 h [13] [nM] | EC50 [14] [µM] | IC50 (Cytochrome P450 3A4) [µM] | Papp [16] [×10⁻⁶ cm/s] | AUC [18] [µM·h] | clearance [19] [mL/min/kg] | half-life [20] [h] | bioavailability [22] [%] | Cmax [23] [nM] | Structure (SMILES) | IC50 [2] [µM] | IC50 [5] [µM] | also measured
9.3 | 4 | 1 | 410 | 30 | 130 | 2.3 | 2.2 | 7.9 | 11 | > 30 | > 50 | 8.9 | 1.4 | 16 | 3.8 | 16 | 350 | CNC(=O)c1c(-c2ccc(F)cc2)oc2cc(N(C)S(C)(=O)=O)c(-c3ccc4c(n3)-c3cc5c(F)cccc5n3CN4)cc12 | > 30 | > 30 | Drug metabolism [10]: Metabolite detected; concentration at 24 h [15]: 4 nM; half-life [17]: 3.9 h; IC50 [21]: > 30 µM; clearance [24]: 7.7 mL/min/kg
20 | 17 | 3.4 | 840 | 64 | 660 | 9.4 | 110 | 3.2 | 130 | > 30 | > 50 | 10.2 | 5.2 | 8.5 | 8.4 | 36 | 580 | CNC(=O)c1c(-c2ccc(F)cc2)oc2cc(N(C)S(C)(=O)=O)c(-c3ccc4ncn5c6cccc(F)c6cc5c4n3)cc12 | > 30 | > 30 | solubility thermodynamic [25]: 1.02 µg/mL (≈ 1.67 µM); AUC [26]: 0.67 µM·h; AUC [27]: 181 µM·h; Cmax [28]: 2700 nM; AUC [29]: 136 µM·h; concentration at 24 h [15]: 10 nM; AUC [30]: 32 µM·h; Cmax [31]: 8500 nM; half-life [17]: 6.1 h; Cmax [32]: 5600 nM; IC50 [21]: 22 µM; clearance [24]: 4.7 mL/min/kg
24 | 22 | 3.5 | 1000 | 43 | 370 | 6.3 | 114 | 2.6 | 140 | > 30 | > 50 | < 1.9 | 7.9 | 4.2 | 16 | 26 | 450 | CNC(=O)c1c(-c2ccc(F)cc2)oc2cc(N(C)S(C)(=O)=O)c(-c3ccc4ccn5c6cccc(F)c6cc5c4n3)cc12 | > 30 | > 30 | solubility thermodynamic [25]: 2.9 µg/mL (≈ 4.75 µM); concentration at 24 h [15]: 31 nM; half-life [17]: 6.6 h; IC50 [21]: 18 µM; clearance [24]: 5.6 mL/min/kg
 |  |  |  |  |  |  |  |  |  |  |  | 7.9 |  |  |  |  |  | CNC(=O)c1c(-c2ccc(F)cc2)oc2cc(N(C)S(C)(=O)=O)c(-c3ccc4c(n3)-c3cc5c(F)cccc5n3CO4)cc12 [MK-8876] |  |  | Cmax [28]: 1500 nM; AUC [29]: 83 µM·h; AUC [30]: 16 µM·h; Cmax [33]: 12000 nM; Cmax [31]: 6700 nM; AUC [34]: 226 µM·h
 |  |  |  |  |  |  |  |  |  |  |  |  | 0.078 | 17 | 4.3 | 1 | 190 | CNC(=O)c1c(-c2ccc(F)cc2)oc2cc(N(C)S(C)(=O)=O)c(-c3cc4n(c(=O)c3)CCn3c-4cc4c(F)cccc43)cc12 |  |  | Tmax [35]: 1 h
 |  |  |  |  |  |  | 10 |  |  |  |  |  | 1.1 | 5.2 | 9.6 | 4 | 120 | CNC(=O)c1c(-c2ccc(F)cc2)oc2cc(N(C)S(C)(=O)=O)c(-c3ccc4c(n3)-c3cc5c(F)cccc5n3C4)cc12 |  |  | Tmax [35]: 3 h
22 | 13 | 1.7 | 1300 | 54 | 320 | 9.2 | 69 | 2.9 | 76 | > 30 | > 50 | 14.2 | 8.8 | 2.3 | 12 | 18 | 950 | CNC(=O)c1c(-c2ccc(F)cc2)oc2cc(N(C)S(C)(=O)=O)c(-c3ccc4c(n3)-c3cc5c(F)cccc5n3CC4)cc12 | > 30 | > 30 | solubility thermodynamic [25]: 4.7 µg/mL (≈ 7.67 µM); Cmax [28]: 4300 nM; AUC [29]: 100 µM·h; concentration at 24 h [15]: 6.3 nM; AUC [30]: 37 µM·h; Cmax [33]: 11000 nM; Cmax [31]: 8200 nM; AUC [34]: 181 µM·h; half-life [17]: 5.9 h; IC50 [21]: 18 µM; Tmax [35]: 4 h; clearance [24]: 11 mL/min/kg
